Measured values as given in publication PMC2878602 (Fems Yeast Research, 2010).

How the values were obtained:
[1] = biological target: T1, Agt1 (AGT1 from ale strain A179) (Saccharomyces cerevisiae, UniProt P53048); assay: inhibition of […]-maltose uptake into intact yeast transformants; assay type: cell-based
T1 sequence (P53048 1-616): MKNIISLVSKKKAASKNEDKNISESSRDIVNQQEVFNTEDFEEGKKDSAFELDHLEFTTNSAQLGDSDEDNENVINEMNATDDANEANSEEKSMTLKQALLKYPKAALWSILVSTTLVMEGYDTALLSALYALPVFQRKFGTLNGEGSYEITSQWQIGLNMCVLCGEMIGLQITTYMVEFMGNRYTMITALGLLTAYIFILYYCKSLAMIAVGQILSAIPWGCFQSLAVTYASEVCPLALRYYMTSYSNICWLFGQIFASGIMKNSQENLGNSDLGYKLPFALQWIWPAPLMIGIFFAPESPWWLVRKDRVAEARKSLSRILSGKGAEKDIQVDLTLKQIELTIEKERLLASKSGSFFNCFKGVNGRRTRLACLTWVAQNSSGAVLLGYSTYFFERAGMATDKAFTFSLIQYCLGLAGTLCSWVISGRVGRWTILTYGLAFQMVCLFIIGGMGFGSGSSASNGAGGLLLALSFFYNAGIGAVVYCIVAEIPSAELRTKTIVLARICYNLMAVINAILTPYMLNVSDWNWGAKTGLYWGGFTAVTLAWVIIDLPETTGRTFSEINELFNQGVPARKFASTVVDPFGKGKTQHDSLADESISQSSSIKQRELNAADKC

[2] = biological target: T2, Agt1 (AGT1 from ale strain A60) (Saccharomyces cerevisiae, UniProt P53048); assay: as above; assay type: cell-based
T2 sequence (P53048 1-616): T1 sequence (P53048 1-616)

[3] = read-out: % inhibition at 50 mM
[4] = read-out: % inhibition at 75 mM

Row | SMILES | inhibition at 50000 µM [1, 3] [%] | inhibition at 50000 µM [2, 3] [%] | inhibition at 75000 µM [1, 4] [%] | inhibition at 75000 µM [2, 4] [%]
1 | OC[C@H]1O[C@H](O[C@H]2[C@H](O)[C@@H](O)[C@@H](O[C@H]3[C@H](O)[C@@H](O)C(O)O[C@@H]3CO)O[C@@H]2CO)[C@H](O)[C@@H](O)[C@@H]1O (stereo partly shown) [maltotriose] | 79 | 85 |  | 
2 | OC[C@H]1O[C@H](O[C@H]2O[C@H](CO)[C@@H](O)[C@H](O)[C@H]2O)[C@H](O)[C@@H](O)[C@@H]1O [trehalose] |  |  | 85 | 94
